The target in assay [1] is T1, SCoV2 PLpro (Severe acute respiratory syndrome coronavirus 2, UniProt P0DTD1). In kind it is cell-based, SARS-CoV-2. To be noted: 10 μM, western blot. On the technique in general: A western blot detects proteins with antibodies after separation by electrophoresis.
The target in assay [2] is T1, SCoV2 PLpro. The experiment in a line: biochemical. In kind it is biochemical, SARS-CoV-2.

What is called inhibition is the share of the control response that was lost under treatment.

As for `C[C@H](c1cccc2ccccc12)N1CCC(C(=O)NCc2cc(F)cc(NC(=O)N3CCN(C)CC3)c2)CC1` [Inhibitor 19, (R)-N-(3-fluoro-5-((1-(1-(naphthalen-1-yl)ethyl)piperidine-4-carboxamido)methyl)phenyl)-4-methylpiperazine-1-carboxamide], in assay [1], the “inhibition of SCoV2 PLpro (nsp1-nsp2 cleavage) in 293T cells” value is on record as “significantly inhibited”.

`CC(C)c1cc(C(C)C)c(CC(=O)NS(=O)(=O)Oc2c(C(C)C)cccc2C(C)C)c(C(C)C)c1` [avasimibe]: the inhibition at 10 µM in assay [2] (read-out: inhibition of SCoV2 PLpro) was above 50%.

Regarding `O=C(O)C(=O)c1cn(Cc2ccccc2)c2ccc(-c3ccc(OC(F)(F)F)cc3)cc12` [tiplaxtinin], in assay [2] (10 μM compound, probe 7), the “inhibition of SCoV2 PLpro” value is recorded as “over 50%”.

On to vitamin B12, for which, in assay [2] (10 µM), the “inhibition of SCoV2 PLpro” value is listed as “over 50%”.

The values are drawn from PMC8075810 (Cell Chemical Biology, 2021).
